Source: PubChem BioAssay (NCI)
Values joined by “and” are separate entries in the source; they are usually repeats but may differ in a detail not shown here. Identical values can stand only once.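 Tested at 5 concentrations; 48 h exposure; 96-well plates; endpoints linearly interpolated, else capped at highest concentration. At the GI50, growth is halved. At the TGI there is no net growth.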

Legend:
Assay in all cases: NCI anticancer screen, dose series, 48 h
SK-MEL-2 melanoma = system: SK-MEL-2 melanoma
NCI-H23 lung = system: NCI-H23 lung
RXF 393 renal = system: RXF 393 renal
COLO 205 colon = system: COLO 205 colon
KM12 colon = system: KM12 colon
IGROV1 ovarian = system: IGROV1 ovarian
UACC-62 melanoma = system: UACC-62 melanoma
T-47D breast = system: T-47D breast
HS 578T breast = system: HS 578T breast
MDA-MB-435 = system: MDA-MB-435

C#CCNC(=O)ON1C(=O)CCC1=O
TGI (SK-MEL-2 melanoma): > 100 µM
TGI (NCI-H23 lung): > 100 µM
TGI (RXF 393 renal): > 100 µM
TGI (COLO 205 colon): > 100 µM
TGI (KM12 colon): > 100 µM
TGI (IGROV1 ovarian): > 100 µM
TGI (UACC-62 melanoma): > 100 µM

O=C1OC(c2ccccc2)=N/C1=C\c1ccc(Oc2ccc(Cl)c(Cl)c2)cc1
TGI (SK-MEL-2 melanoma): > 100 µM
TGI (NCI-H23 lung): > 100 µM
TGI (RXF 393 renal): 69.3 µM
TGI (COLO 205 colon): > 100 µM
TGI (KM12 colon): > 100 µM
TGI (IGROV1 ovarian): > 100 µM
TGI (UACC-62 melanoma): 52.3 µM

Cc1ccc(S(=O)(=O)N=NC=C2c3ccccc3N(O)c3ccccc32)cc1
TGI (SK-MEL-2 melanoma): 17.8 µM
TGI (NCI-H23 lung): 19.3 µM
TGI (COLO 205 colon): 7.99 µM
TGI (KM12 colon): 26.6 µM
TGI (IGROV1 ovarian): 27.1 µM
TGI (UACC-62 melanoma): 18.8 µM

COc1ccc(C(=O)c2cc3c(N)c(C(=O)Nc4ccccc4)sc3nc2C)cc1
GI50 (SK-MEL-2 melanoma): 4.22 µM
TGI (SK-MEL-2 melanoma): > 100 µM
GI50 (T-47D breast): 0.74 µM
TGI (T-47D breast): > 100 µM
GI50 (NCI-H23 lung): 2.54 µM
TGI (NCI-H23 lung): > 100 µM
GI50 (RXF 393 renal): 0.485 µM
TGI (RXF 393 renal): > 100 µM
GI50 (COLO 205 colon): 1.42 µM
TGI (COLO 205 colon): > 100 µM
GI50 (HS 578T breast): 0.331 µM
TGI (HS 578T breast): 67.5 µM
GI50 (KM12 colon): 0.539 µM
TGI (KM12 colon): > 100 µM
GI50 (IGROV1 ovarian): 2.51 µM
TGI (IGROV1 ovarian): > 100 µM
GI50 (UACC-62 melanoma): 0.952 µM
TGI (UACC-62 melanoma): > 100 µM

COC(=O)C12CC(NC(=O)c3csc([C@@H](C[C@H](C(C)C)N(C)C(=O)[C@@H](NC(=O)[C@H]4CCCCN4C)C4CC4)OC(C)=O)n3)(C1)C2
GI50 (SK-MEL-2 melanoma): 0.033 µM
TGI (SK-MEL-2 melanoma): > 16.7 µM
GI50 (MDA-MB-435): 0.00243 µM
TGI (MDA-MB-435): 0.0197 µM
GI50 (NCI-H23 lung): 0.0885 µM
TGI (NCI-H23 lung): > 16.7 µM
GI50 (COLO 205 colon): 0.00972 µM
TGI (COLO 205 colon): 0.201 µM
GI50 (HS 578T breast): 0.0169 µM
TGI (HS 578T breast): > 16.7 µM
GI50 (KM12 colon): 0.0363 µM
TGI (KM12 colon): > 16.7 µM
GI50 (IGROV1 ovarian): 0.0126 µM
TGI (IGROV1 ovarian): > 16.7 µM
GI50 (UACC-62 melanoma): 0.0153 µM
TGI (UACC-62 melanoma): > 16.7 µM

O=C(C#Cc1ccccc1)N1c2ccccc2CC1c1c[nH]c2ccccc12 (stereo not drawn)
TGI (SK-MEL-2 melanoma): 26.6 µM
TGI (NCI-H23 lung): 32.4 µM
TGI (RXF 393 renal): 19.5 µM
TGI (COLO 205 colon): 31.6 µM
TGI (KM12 colon): 31.5 µM
TGI (IGROV1 ovarian): 25.3 µM
TGI (UACC-62 melanoma): 22.8 µM

Cl/C(N=Nc1ccccc1)=N/Nc1ccccc1
TGI (SK-MEL-2 melanoma): > 100 µM
TGI (NCI-H23 lung): > 100 µM
TGI (RXF 393 renal): > 100 µM
TGI (COLO 205 colon): > 100 µM
TGI (KM12 colon): > 100 µM
TGI (IGROV1 ovarian): > 100 µM

O=c1nc(-c2ccccc2)cc(CC(O)c2ccc(Cl)c(Cl)c2)[nH]1 (stereo not drawn)
TGI (SK-MEL-2 melanoma): 65.3 µM
TGI (NCI-H23 lung): > 100 µM
TGI (RXF 393 renal): > 100 µM
TGI (COLO 205 colon): 31.7 µM
TGI (KM12 colon): > 100 µM
TGI (IGROV1 ovarian): > 100 µM
TGI (UACC-62 melanoma): > 100 µM

O=C(O)c1cc(=O)c2c([nH]c3ccccc32)s1
TGI (SK-MEL-2 melanoma): > 100 µM
TGI (NCI-H23 lung): > 100 µM
TGI (RXF 393 renal): > 100 µM
TGI (COLO 205 colon): > 100 µM
TGI (KM12 colon): > 100 µM
TGI (IGROV1 ovarian): > 100 µM
TGI (UACC-62 melanoma): > 100 µM

CC(=O)NC(CCCCN)C(=O)NCc1ccccc1 (stereo not drawn)
TGI (SK-MEL-2 melanoma): > 100 µM
TGI (NCI-H23 lung): > 100 µM
TGI (RXF 393 renal): > 100 µM
TGI (COLO 205 colon): > 100 µM
TGI (KM12 colon): > 100 µM
TGI (IGROV1 ovarian): > 100 µM
TGI (UACC-62 melanoma): > 100 µM

CN(C)/C=N\c1ccnc(=O)[nH]1
TGI (SK-MEL-2 melanoma): > 100 µM
TGI (RXF 393 renal): > 100 µM
TGI (COLO 205 colon): > 100 µM
TGI (KM12 colon): > 100 µM
TGI (IGROV1 ovarian): > 100 µM
TGI (UACC-62 melanoma): > 100 µM

N/C(=N\NS(=O)(=O)c1ccccc1)Oc1ccc(Br)cc1Br
TGI (SK-MEL-2 melanoma): > 100 µM
TGI (NCI-H23 lung): > 100 µM
TGI (RXF 393 renal): > 100 µM
TGI (COLO 205 colon): > 100 µM
TGI (KM12 colon): > 100 µM
TGI (IGROV1 ovarian): > 100 µM
TGI (UACC-62 melanoma): > 100 µM

Cc1nc2ccc(Br)cc2c(=O)n1-c1ccc(NC2OCC(O)C(O)C2O)cc1 (stereo not drawn)
GI50 (SK-MEL-2 melanoma): 25.6 µM and > 100 µM
TGI (SK-MEL-2 melanoma): 66.3 µM and > 100 µM
GI50 (MDA-MB-435): 36 µM and > 100 µM
TGI (MDA-MB-435): > 100 µM
GI50 (RXF 393 renal): 32.1 µM and > 100 µM
TGI (RXF 393 renal): 51.4 µM and > 100 µM
GI50 (COLO 205 colon): > 100 µM
TGI (COLO 205 colon): > 100 µM
TGI (HS 578T breast): > 100 µM
GI50 (KM12 colon): 26.3 µM and > 100 µM
TGI (KM12 colon): 68.4 µM and > 100 µM
TGI (IGROV1 ovarian): > 100 µM
GI50 (UACC-62 melanoma): 30.7 µM and > 100 µM
TGI (UACC-62 melanoma): > 100 µM

COc1ccc(Nc2nc3ccccc3c3occc23)cc1
GI50 (SK-MEL-2 melanoma): 8.68 µM
TGI (SK-MEL-2 melanoma): 22.5 µM
GI50 (MDA-MB-435): 1.63 µM
TGI (MDA-MB-435): 5.59 µM
GI50 (NCI-H23 lung): 5.72 µM
TGI (NCI-H23 lung): 12.4 µM
GI50 (RXF 393 renal): 5.42 µM
TGI (RXF 393 renal): 19.1 µM
GI50 (COLO 205 colon): 7.71 µM
TGI (COLO 205 colon): 18.6 µM
GI50 (HS 578T breast): 7.12 µM
TGI (HS 578T breast): 16.3 µM
GI50 (KM12 colon): 1.78 µM
TGI (KM12 colon): 7.99 µM
GI50 (IGROV1 ovarian): 37.4 µM
TGI (IGROV1 ovarian): > 50 µM
GI50 (UACC-62 melanoma): 5.48 µM
TGI (UACC-62 melanoma): 11.4 µM

Cc1cc(NC(=O)C2C3C=CC(O3)C2C(=O)O)no1 (stereo not drawn)
TGI (SK-MEL-2 melanoma): > 100 µM
TGI (NCI-H23 lung): > 100 µM
TGI (RXF 393 renal): 31 µM
TGI (COLO 205 colon): 31.5 µM
TGI (IGROV1 ovarian): > 100 µM
TGI (UACC-62 melanoma): > 100 µM

CC1(c2cc3c(cc2Br)OCO3)SCCCS1
TGI (SK-MEL-2 melanoma): 88.3 µM
TGI (NCI-H23 lung): 45.5 µM
TGI (RXF 393 renal): 37.3 µM
TGI (COLO 205 colon): > 100 µM
TGI (KM12 colon): > 100 µM
TGI (IGROV1 ovarian): > 100 µM
TGI (UACC-62 melanoma): > 100 µM

Cc1cc(C)nc(/C(=N\NC(N)=O)C(=O)Nc2nc3ccc(C)cc3s2)c1
TGI (SK-MEL-2 melanoma): > 100 µM
TGI (NCI-H23 lung): > 100 µM
TGI (RXF 393 renal): > 100 µM
TGI (COLO 205 colon): > 73.5 µM
TGI (KM12 colon): > 100 µM
TGI (IGROV1 ovarian): > 100 µM
TGI (UACC-62 melanoma): > 100 µM
